How the values were obtained:
[1] = target: intracellular GCN2 (phosphorylation of the GCN2 substrate eIF2α) (Homo sapiens, UniProt Q9P2K8); assay: GCN2 cellular inhibition assay (AlphaScreen SureFire P-eIF2α Ser51, borrelidin-treated U2OS cells); assay type: cell-based; settings: compounds of Formula II; biomarker assay, phosphorylated eIF2α Ser51 in borrelidin-treated U2OS cells
Method in brief: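 U2OS cells adhered overnight, then treated with compounds (4-fold serial dilutions from 40 μM final) plus borrelidin 10 μM final for 1 h at 37 °C. Lysate eIF2α Ser51 phosphorylation measured by AlphaScreen SureFire. Percent inhibition calculated relative to borrelidin-only wells.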

GCN2 kinase = GCN2 kinase (Homo sapiens, UniProt Q9P2K8); assay: GCN2 enzyme inhibition assay (Transcreener ADP2 fluorescence polarization); assay type: biochemical; settings: compounds of Formula II; 280 μM ATP, 4 nM GCN2 kinase
GCN2 kinase, sequence (Q9P2K8 whole entry): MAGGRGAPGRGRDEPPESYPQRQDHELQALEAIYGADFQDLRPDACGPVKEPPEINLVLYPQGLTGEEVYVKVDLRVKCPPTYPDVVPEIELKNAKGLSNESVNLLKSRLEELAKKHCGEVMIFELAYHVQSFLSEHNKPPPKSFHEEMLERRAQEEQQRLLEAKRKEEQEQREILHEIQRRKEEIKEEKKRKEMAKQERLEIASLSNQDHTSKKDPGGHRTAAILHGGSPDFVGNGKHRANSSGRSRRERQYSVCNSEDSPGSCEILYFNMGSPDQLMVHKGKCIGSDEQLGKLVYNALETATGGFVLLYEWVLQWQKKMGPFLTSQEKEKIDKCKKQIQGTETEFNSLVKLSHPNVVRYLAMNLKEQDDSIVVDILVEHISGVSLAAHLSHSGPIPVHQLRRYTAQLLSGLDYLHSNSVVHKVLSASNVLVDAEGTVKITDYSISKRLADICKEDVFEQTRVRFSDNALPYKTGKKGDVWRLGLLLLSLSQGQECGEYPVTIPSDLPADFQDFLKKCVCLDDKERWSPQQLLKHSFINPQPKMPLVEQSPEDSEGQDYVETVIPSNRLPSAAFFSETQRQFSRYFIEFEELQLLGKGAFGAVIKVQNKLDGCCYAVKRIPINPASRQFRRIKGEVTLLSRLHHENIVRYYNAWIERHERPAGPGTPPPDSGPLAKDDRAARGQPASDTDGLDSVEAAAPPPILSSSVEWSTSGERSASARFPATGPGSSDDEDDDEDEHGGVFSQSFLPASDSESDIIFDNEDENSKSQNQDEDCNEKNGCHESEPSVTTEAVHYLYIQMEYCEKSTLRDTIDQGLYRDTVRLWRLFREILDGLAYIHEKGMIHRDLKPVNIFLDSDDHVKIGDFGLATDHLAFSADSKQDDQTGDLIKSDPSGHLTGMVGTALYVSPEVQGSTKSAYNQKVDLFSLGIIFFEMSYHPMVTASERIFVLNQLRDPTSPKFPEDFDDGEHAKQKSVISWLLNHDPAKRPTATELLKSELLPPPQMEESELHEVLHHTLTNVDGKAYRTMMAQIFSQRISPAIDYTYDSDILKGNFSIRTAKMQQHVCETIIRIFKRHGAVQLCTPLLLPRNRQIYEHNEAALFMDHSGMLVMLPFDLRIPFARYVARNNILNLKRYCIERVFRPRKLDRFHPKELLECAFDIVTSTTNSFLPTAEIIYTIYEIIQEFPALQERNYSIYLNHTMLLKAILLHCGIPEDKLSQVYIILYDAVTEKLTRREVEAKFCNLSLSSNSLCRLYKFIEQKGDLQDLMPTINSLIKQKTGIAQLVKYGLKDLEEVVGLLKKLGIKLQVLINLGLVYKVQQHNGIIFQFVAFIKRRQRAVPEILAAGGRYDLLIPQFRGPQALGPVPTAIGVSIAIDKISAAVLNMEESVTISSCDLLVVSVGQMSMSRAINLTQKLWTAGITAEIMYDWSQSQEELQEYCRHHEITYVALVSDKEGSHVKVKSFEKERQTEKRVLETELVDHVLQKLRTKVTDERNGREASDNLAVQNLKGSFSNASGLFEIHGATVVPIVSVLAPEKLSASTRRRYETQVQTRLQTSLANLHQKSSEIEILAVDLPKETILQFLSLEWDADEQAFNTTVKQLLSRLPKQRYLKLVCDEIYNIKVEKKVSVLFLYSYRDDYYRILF
Method in brief: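 Kinase activity is followed as ADP formation, measured by fluorescence polarization, using 4 nM enzyme with 280 μM ATP and 200 μM (RS)7 peptide at pH 7.5 and 25 °C for 1 h. Values come from a non-linear tight-binding fit.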

intracellular GCN2 (phosphorylation of the GCN2 substrate eIF2α), sequence (Q9P2K8 whole entry): as above

IC50 [1] | Ki (GCN2 kinase) | SMILES
> 5000 nM | 10 to 1000 nM | FC(F)c1ccc2ncc(-c3cc(C4=CCOCC4)ncn3)n2n1 [II-357, 6-(Difluoromethyl)-3-(6-(3,6-dihydro-2H-pyran-4-yl)pyrimidin-4-yl)imidazo[1,2-b]pyridazine]
> 5000 nM | 10 to 1000 nM | FC(F)c1ccc2ncc(-c3cc(C4CCOCC4)ncn3)n2n1 [II-358, 6-(Difluoromethyl)-3-(6-tetrahydropyran-4-ylpyrimidin-4-yl)imidazo[1,2-b]pyridazine]
> 5000 nM | 10 to 1000 nM | OCC1CN(c2cc(-c3cnc4ccc(C(F)F)nn34)ncn2)CC2(CC2)O1 (stereo not shown) [II-359, (7-(6-(6-(Difluoromethyl)imidazo[1,2-b]pyridazin-3-yl)pyrimidin-4-yl)-4-oxa-7-azaspiro[2.5]octan-5-yl)methanol]
500 to 5000 nM | 10 to 1000 nM | CS(=O)(=O)NC1CCCN(c2cc(-c3cnc4ccc(C(F)F)nn34)ncn2)C1 (stereo not shown) [II-362, N-(1-(6-(6-(Difluoromethyl)imidazo[1,2-b]pyridazin-3-yl)pyrimidin-4-yl)piperidin-3-yl)methanesulfonamide]
> 5000 nM | 10 to 1000 nM | CC1CC(C)(O)C(CNS(C)(=O)=O)CN1c1cc(-c2cnc3ccc(C(F)F)nn23)ncn1 (stereo not shown) [II-365, N-((1-(6-(6-(Difluoromethyl)imidazo[1,2-b]pyridazin-3-yl)pyrimidin-4-yl)-4-hydroxy-4,6-dimethylpiperidin-3-yl)methyl)methanesulfonamide]
< 500 nM | < 10 nM | CC1C(CNS(C)(=O)=O)C(C)(O)CCN1c1cc(-c2cnc3ccc(C(F)F)nn23)ncn1 (stereo not shown) [II-366, N-((1-(6-(6-(Difluoromethyl)imidazo[1,2-b]pyridazin-3-yl)pyrimidin-4-yl)-4-hydroxy-2,4-dimethylpiperidin-3-yl)methyl)methanesulfonamide]
500 to 5000 nM | 10 to 1000 nM | CC1CC(C)(O)C(CNS(C)(=O)=O)CN1c1cc(-c2cnc3ccc(C(F)F)nn23)ncn1 (stereo not shown) [II-367, N-((1-(6-(6-(Difluoromethyl)imidazo[1,2-b]pyridazin-3-yl)pyrimidin-4-yl)-4-hydroxy-4,6-dimethylpiperidin-3-yl)methyl)methanesulfonamide]
> 5000 nM | 10 to 1000 nM | CC(=O)N1CCN(c2cc(-c3cnc4ccc(C(F)F)nn34)ncn2)C(C)C1 (stereo not shown) [II-368, 1-(4-(6-(6-(Difluoromethyl)imidazo[1,2-b]pyridazin-3-yl)pyrimidin-4-yl)-3-methylpiperazin-1-yl)ethan-1-one]
> 5000 nM | 10 to 1000 nM | CS(=O)(=O)N1CCC2C(C1)OCCN2c1cc(-c2cnc3ccc(C(F)F)nn23)ncn1 (stereo not shown) [II-369, 1-(6-(6-(Difluoromethyl)imidazo[1,2-b]pyridazin-3-yl)pyrimidin-4-yl)-6-(methylsulfonyl)octahydro-1H-pyrido[3,4-b][1,4]oxazine]
500 to 5000 nM | 10 to 1000 nM | CS(=N)(=O)CC1CCCN(c2cc(-c3cnc4ccc(C(F)F)nn34)ncn2)C1 (stereo not shown) [II-370, ((1-(6-(6-(Difluoromethyl)imidazo[1,2-b]pyridazin-3-yl)pyrimidin-4-yl)piperidin-3-yl)methyl)(imino)(methyl)-λ^6-sulfanone]
500 to 5000 nM | < 10 nM | CC1C(CO)CCCN1c1cc(-c2cnc3ccc(C(F)F)nn23)ncn1 (stereo not shown) [II-373, (1-(6-(6-(Difluoromethyl)imidazo[1,2-b]pyridazin-3-yl)pyrimidin-4-yl)-2-methylpiperidin-3-yl)methanol]
< 500 nM | < 10 nM | CS(=O)(=O)NCC1CN(c2cc(-c3cnc4ccc(C(F)F)nn34)ncn2)CC2(CC2)O1 (stereo not shown) [II-375, N-((7-(6-(6-(Difluoromethyl)imidazo[1,2-b]pyridazin-3-yl)pyrimidin-4-yl)-4-oxa-7-azaspiro[2.5]octan-5-yl)methyl)methanesulfonamide]
500 to 5000 nM | 10 to 1000 nM | NS(=O)(=O)C1CCCN(c2cc(-c3cnc4ccc(C(F)F)nn34)ncn2)C1 (stereo not shown) [II-376, 1-(6-(6-(Difluoromethyl)imidazo[1,2-b]pyridazin-3-yl)pyrimidin-4-yl)piperidine-3-sulfonamide]
500 to 5000 nM | 10 to 1000 nM | NC(=O)C1CCCN(c2cc(-c3cnc4ccc(C(F)F)nn34)ncn2)C1 (stereo not shown) [II-378, 1-(6-(6-(Difluoromethyl)imidazo[1,2-b]pyridazin-3-yl)pyrimidin-4-yl)piperidine-3-carboxamide]
500 to 5000 nM | 10 to 1000 nM | O=S(=O)(NCC1CCCN(c2cc(-c3cnc4ccc(C(F)F)nn34)ncn2)C1)C(F)(F)F (stereo not shown) [II-379, N-((1-(6-(6-(Difluoromethyl)imidazo[1,2-b]pyridazin-3-yl)pyrimidin-4-yl)piperidin-3-yl)methyl)-1,1,1-trifluoromethanesulfonamide]
> 5000 nM | > 1000 nM | FC(F)c1ccc2ncc(-c3cc(N4CCCCC4C(F)(F)F)ncn3)n2n1 (stereo not shown) [II-380, 6-(Difluoromethyl)-3-(6-(2-(trifluoromethyl)piperidin-1-yl)pyrimidin-4-yl)imidazo[1,2-b]pyridazine]
< 500 nM | < 10 nM | CC1C(CNS(C)(=O)=O)CN(c2cc(-c3cnc4ccc(C(F)F)nn34)ncn2)CC1(F)F (stereo not shown) [II-381, N-((1-(6-(6-(Difluoromethyl)imidazo[1,2-b]pyridazin-3-yl)pyrimidin-4-yl)-5,5-difluoro-4-methylpiperidin-3-yl)methyl)methanesulfonamide]
500 to 5000 nM | 10 to 1000 nM | CC1C(CNS(C)(=O)=O)CN(c2cc(-c3cnc4ccc(C(F)F)nn34)ncn2)CC1(F)F (stereo not shown) [II-382, N-((1-(6-(6-(Difluoromethyl)imidazo[1,2-b]pyridazin-3-yl)pyrimidin-4-yl)-5,5-difluoro-4-methylpiperidin-3-yl)methyl)methanesulfonamide]
500 to 5000 nM | 10 to 1000 nM | CS(=O)(=O)NCC1CN(c2cc(-c3cnc4ccc(C(F)F)nn34)ncn2)CC2(CC2)O1 (stereo not shown) [II-383, N-((7-(6-(6-(Difluoromethyl)imidazo[1,2-b]pyridazin-3-yl)pyrimidin-4-yl)-4-oxa-7-azaspiro[2.5]octan-5-yl)methyl)methanesulfonamide]
< 500 nM | < 10 nM | CS(=O)(=O)NCC1CN(c2cc(-c3cnc4ccc(C(F)F)nn34)ncn2)CC2(CC2)O1 (stereo not shown) [II-384, N-((7-(6-(6-(Difluoromethyl)imidazo[1,2-b]pyridazin-3-yl)pyrimidin-4-yl)-4-oxa-7-azaspiro[2.5]octan-5-yl)methyl)methanesulfonamide]
< 500 nM | < 10 nM | CNS(=O)(=O)NCC1CCCN(c2cc(-c3cnc4ccc(C(F)F)nn34)ncn2)C1 (stereo not shown) [II-385, 1-((1-(6-(6-(Difluoromethyl)imidazo[1,2-b]pyridazin-3-yl)pyrimidin-4-yl)piperidin-3-yl)methyl)-3-methylsulfuric diamide]
< 500 nM | < 10 nM | CNS(=O)(=O)NCC1CN(c2cc(-c3cnc4ccc(C(F)F)nn34)ncn2)CCO1 (stereo not shown) [II-386, 1-((4-(6-(6-(Difluoromethyl)imidazo[1,2-b]pyridazin-3-yl)pyrimidin-4-yl)morpholin-2-yl)methyl)-3-methylsulfuric diamide]
500 to 5000 nM | 10 to 1000 nM | CC1C(CNS(N)(=O)=O)CCCN1c1cc(-c2cnc3ccc(C(F)F)nn23)ncn1 (stereo not shown) [II-387, 6-(Difluoromethyl)-3-[6-[2-methyl-3-[(sulfamoylamino)methyl]-1-piperidyl]pyrimidin-4-yl]imidazo[1,2-b]pyridazine]
